PubChem BioAssay AID720632 (Broad Institute, 2013)
Calls of active or inactive are those of the source. No rule for the calls is given here.

Biological target: Caspase-6 (Homo sapiens) (UniProt P55212)
Assay: inhibition of CASP6 peptide cleavage – biochemical, VEID-R110 fluorescence, cherry-pick, dose response (AID 720632)
Details: caspase-6, VEID-R110 fluorogenic substrate

Sequence of Caspase-6 (Homo sapiens) (P55212 24-179 limits assumed): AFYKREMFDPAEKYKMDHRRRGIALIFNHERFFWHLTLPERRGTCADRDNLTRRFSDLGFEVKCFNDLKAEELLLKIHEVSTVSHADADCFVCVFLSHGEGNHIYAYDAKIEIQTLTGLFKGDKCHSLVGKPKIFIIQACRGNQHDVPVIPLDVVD
Sequence of Caspase-6 (Homo sapiens) (P55212 194-293 limits assumed): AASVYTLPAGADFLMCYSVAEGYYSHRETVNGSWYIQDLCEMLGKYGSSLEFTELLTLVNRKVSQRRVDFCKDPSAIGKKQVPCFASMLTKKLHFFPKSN

SMILES | activity change, negative = inhibition (at 26 µM (top of the series)) | activity change, negative = inhibition (at 23.5 µM (top of the series))
Cc1cc(C)cc(N(CC(=O)N2CCCCCC2)S(C)(=O)=O)c1 | inactive | –
CCCCn1c(N)c(N(CCC(C)C)C(=O)COC(=O)c2ccc([N+](=O)[O-])s2)c(=O)[nH]c1=O | inactive | –
CC(=O)N1c2ccc(S(=O)(=O)N(C)CC(=O)NCc3ccc(C)cc3)cc2CC1C (configuration not stated) | inactive | –
COc1cccc(NS(=O)(=O)c2ccc3c(c2)NC(=O)CC(=O)N3)c1 | inactive | –
CCCN1C[C@@H](C)[C@@H](OC)CN(C)C(=O)c2ccc(NC(=O)CC)cc2OC[C@@H]1C | inactive | –
O=C(Nc1ccc(C(=O)N2CCCC2)cc1)c1ccc2c(c1)OCO2 | inactive | –
O=C(Nc1cccc(-c2ccccc2)c1)N1CCN(C(=O)Nc2cccc(-c3ccccc3)c2)CC1 | inactive | –
Cc1ccc(S(=O)(=O)N(CC(=O)Nc2ccccc2C(=O)O)c2cccc(Cl)c2C)cc1 | inactive | –
O=C(CNC(=O)c1ccccc1F)N/N=C/c1ccc2c(c1)OCO2 | inactive | –
O=C(N/N=C/C1CC=CCC1)c1ccc(Cl)cc1O (configuration not stated) | inactive | –
Cc1ccc(S(=O)(=O)n2c(C)nc3ccccc32)cc1 | inactive | –
Cc1nc2ccc(NC(=O)CCC3CCCC3)cc2s1 | inactive | –
CCCN1C[C@@H](C)[C@@H](OC)CN(C)C(=O)c2ccc(NC(=O)CC)cc2OC[C@H]1C | inactive | –
O=C([C@H]1[C@H](CO)[C@H]2Cn3c(cccc3=O)[C@H]2N1Cc1cc(F)ccc1F)N1CCOCC1 | inactive | –
Cc1ccc2oc(C(=O)N(Cc3ccc(N(C)C)cc3)C3CCS(=O)(=O)C3)c(C)c2c1 (configuration not stated) | inactive | –
COc1ccccc1NS(=O)(=O)c1cc(C(=O)NC2CCN(Cc3ccccc3)CC2)ccc1C | inactive | –
COc1ccccc1C(=O)Nc1ccc2c(c1)OC[C@@H](C)N(CC1CC1)C[C@@H](C)[C@@H](OC)CN(C)C2=O | inactive | –
CCCCN(C(=O)c1cccc(-n2cccc2)c1)c1c(N)n(CCCC)c(=O)[nH]c1=O | inactive | –
O=C(N/N=C/c1ccc([N+](=O)[O-])o1)c1ccccc1NS(=O)(=O)c1cccs1 | inactive | –
COP(=O)(OC)c1ccc(NCc2cc(O)ccc2O)cc1 | inactive | –
COc1cccc(CNC(=O)CCn2ccc3cc(S(=O)(=O)N4CCCC4)ccc32)c1 | inactive | –

SMILES | activity change, negative = inhibition (at 26 µM (top of the series)) | activity change, negative = inhibition (at 23.5 µM (top of the series))
COc1nc(C)c2cc(C)oc2n1 | inactive | –
CO[C@@H]1CN(C)C(=O)c2ccc(NC(C)=O)cc2OC[C@@H](C)NC[C@@H]1C | inactive | –
CC(=O)Nc1cccc(NC(=O)c2cc([N+](=O)[O-])ccc2N2CCCCC2)c1 | inactive | –
CO[C@H]1CN(C)C(=O)c2ccc(NC(=O)c3ccccc3)cc2OC[C@@H](C)N(C(=O)C2CC2)C[C@@H]1C | inactive | –
O=C([C@@H]1[C@@H](CO)[C@@H]2Cn3c(cccc3=O)[C@@H]2N1Cc1cc(F)ccc1F)N1CCOCC1 | inactive | –
CC1CC(C)CN(S(=O)(=O)c2ccc(F)c(C(=O)NC3CCCCC3C)c2)C1 (configuration not stated) | inactive | –
Cc1cc(C)c(NC(=O)COC(=O)c2ccc([N+](=O)[O-])s2)c(C)c1 | inactive | –
Cc1ccc(Nc2ncnc3sccc23)c(C)c1 | inactive | –
COc1ccc(N(C)S(=O)(=O)c2cccc(C(=O)NCC(c3cccs3)N(C)C)c2)cc1 (configuration not stated) | inactive | –
O=C(CCCn1c(=S)[nH]c2cc3c(cc2c1=O)OCO3)N1CCN(C2CCCCC2)CC1 | inactive | –
COc1ccccc1NC(=O)c1ccccc1S(=O)(=O)c1ccc([N+](=O)[O-])cc1 | inactive | –
O=C(O)c1cccc(Nc2ccnc(Nc3cccc(C(=O)O)c3)n2)c1 | inactive | –
CO[C@@H]1CN(C)C(=O)c2ccc(NC(=O)C3CC3)cc2OC[C@H](C)N(Cc2cccc(F)c2)C[C@H]1C | inactive | –
O=C(N/N=C/c1cccnc1)c1cc(O)c(O)c(O)c1 | inactive | –
CCOc1ccc(Nc2nc(N3CCOCC3)nc(N3CCOCC3)n2)cc1 | inactive | –
Cc1csc(=O)n1CC(=O)OCC(=O)NCc1ccc(F)cc1 | inactive | –
COc1cc(OC)c(NS(=O)(=O)c2c(C)[nH]c(=O)[nH]c2=O)cc1Cl | inactive | –
O=C(CCN1C(=O)NC2(CCCC2)C1=O)Nc1cccc(S(=O)(=O)N2CCOCC2)c1 | inactive | –
O=C(O)c1ccc(N2C(=O)CC(N3CCN(c4cccc(C(F)(F)F)c4)CC3)C2=O)cc1 (configuration not stated) | inactive | –
O=C(c1cccc(S(=O)(=O)N2CCCCCC2)c1)N1CCN(c2ccccc2F)CC1 | inactive | –
O=C(N/N=C/c1cccc(O)c1)c1ccccc1O | inactive | –

SMILES | activity change, negative = inhibition (at 26 µM (top of the series)) | activity change, negative = inhibition (at 23.5 µM (top of the series))
O=C(N/N=C/c1ccc(O)cc1O)C(=O)N/N=C/c1ccc(O)cc1O | inactive | –
CCN(C(=O)COC(=O)c1oc2ccccc2c1C)c1c(N)n(Cc2ccccc2)c(=O)[nH]c1=O | inactive | –
CCOc1ccc(NC(=O)CN(C)C(=O)c2cc(C)nc3ccccc23)cc1OCC | inactive | –
Cc1onc(-c2ccc(Cl)cc2Cl)c1-c1csc(N/N=C/c2ccccc2Cl)n1 | inactive | –
CO[C@@H]1CN(C)C(=O)c2ccc(NC(=O)C3CC3)cc2OC[C@H](C)N(Cc2ccccc2)C[C@@H]1C | inactive | –
CCCCCc1ccc(CC(=O)N2CCOCC2)cc1 | inactive | –
CC(CNC(=O)c1ccc(OC2CCN(Cc3ccccn3)CC2)cc1)c1ccccc1 (configuration not stated) | inactive | –
CC(Nc1ccc2ccccc2c1)C(=O)N/N=C/c1ccncc1 (configuration not stated) | inactive | –
O=C(Nc1ccccc1)c1nc[nH]c1C(=O)Nc1ccccc1F | inactive | –
CCC(=O)Nc1ccc2c(c1)OC[C@@H](C)N(Cc1ccccc1)C[C@@H](C)[C@@H](OC)CN(C)C2=O | inactive | –
CCOC(=O)C1=C(COC(=O)c2ccc([N+](=O)[O-])s2)NC(=O)NC1C (configuration not stated) | inactive | –
CN1C(=O)NC(=O)C(N=Nc2ccc(Cl)cc2)C1=O (configuration not stated) | inactive | –
CCc1nc2c(OCc3ccc(C(=O)OC)cc3)cccn2c1N(C)C(=O)c1ccc(C)cc1 | inactive | –
CCN(CC)c1c([N+](=O)[O-])c(=O)n(CC)c2ccccc12 | inactive | –
Cc1ccc(NC(=O)CCC(=O)NNC(=O)COc2ccccc2)c(C)c1 | inactive | –
CO[C@H]1CN(C)C(=O)c2cc(NC(=O)C3CC3)ccc2OC[C@H](C)N(C(=O)c2ccccc2)C[C@H]1C | inactive | –
O=c1nc2ccc(Cl)cn2c2ccc(S(=O)(=O)N3CCCCC3)cc12 | inactive | –
CCN(CC)CCN(CC)Cc1ccccc1Br | inactive | –
Oc1ccc(/C=N/N=C/c2ccc(O)c(O)c2)cc1O | inactive | –
N#C[C@@H]1[C@H](c2ccc(C3=CCCCC3)cc2)[C@@H](CO)N1S(=O)(=O)c1ccccc1 | – | inactive
O=C(CCCCCn1c(=S)[nH]c2cc3c(cc2c1=O)OCO3)N1CCN(Cc2ccccc2)CC1 | inactive | –

SMILES | activity change, negative = inhibition (at 26 µM (top of the series)) | activity change, negative = inhibition (at 23.5 µM (top of the series))
O=C(NCc1ccncc1)c1ccc(OCc2ccccc2)cc1 | inactive | –
COc1cccc(NC(=O)Cn2c(=O)n(C)c(=O)c3sc4c(c32)COC(C)(C)C4)c1 | inactive | –
CO[C@@H]1CN(C)C(=O)c2ccc(NC(=O)C3CC3)cc2OC[C@@H](C)N(Cc2ccccc2)C[C@@H]1C | inactive | –
CCCN1C[C@@H](C)[C@H](OC)CN(C)C(=O)c2ccc(NC(=O)c3ccccc3)cc2OC[C@@H]1C | inactive | –
O=C(O)C1C=Cc2ccccc2N1C(=O)c1ccccc1 (configuration not stated) (tested in a mixture with another compound) | inactive | –
CCC1(C)Cc2c(C#N)c(N)n(-c3ccccc3)c(=S)c2CO1 (configuration not stated) | inactive | –
COc1cccc(S(=O)(=O)N2C[C@@H]3N[C@H](C2)C3c2ccc(-c3ccccc3C)cc2)c1 (some centres not stated) | inactive | –
OC[C@H]1[C@H](c2ccc(-c3ccccc3F)cc2)[C@H]2CN(Cc3cccnc3)CCCCN21 | inactive | –
CN=C(Nc1cccnc1)c1cccc(C(F)(F)F)c1 | inactive | –
O=C(COC(=O)c1ccc([N+](=O)[O-])s1)NC(=O)NCc1ccccc1 | inactive | –
CCCNC(=O)[C@@H]1[C@@H](CO)[C@@H]2Cn3c(ccc(-c4ccccc4)c3=O)[C@@H]2N1CC1CC1 | inactive | –
CCC(C)(C)NC(=O)CN(C(=O)CNS(=O)(=O)c1ccc(F)cc1)c1ccc2c(c1)OCCO2 | inactive | –
CCC(=O)Nc1ccc2c(c1)OC[C@H](C)N(C(=O)CC)C[C@H](C)[C@H](OC)CN(C)C2=O | inactive | –
Cc1ccc(C)c(S(=O)(=O)N2CCN(C(C)C(=O)Nc3ccccc3-c3ccccc3)CC2)c1 (configuration not stated) | inactive | –
C#CC(C)(C)NC(=O)c1ccc(-c2ccccc2F)cc1 | inactive | –
O=C(Nc1cccc(C(=O)N2CCOCC2)c1)c1ccc([N+](=O)[O-])cc1 | inactive | –
CCCC(=O)Nc1ccc2c(c1)OC[C@@H](C)N(C)C[C@@H](C)[C@H](OC)CN(C)C2=O | inactive | –
Cn1c(C(=O)N2CCCC(Nc3ccc(F)cc3)C2)cc2ccccc21 (configuration not stated) | inactive | –
Cc1cnc(NC(=O)c2ccc3c(c2)OCCO3)s1 | inactive | –
